From US20100316529A1, “Anti-Microbial Systems and Methods” (priority 2001, published 2010)
Several values for one entry are separate records, joined by “and”; a condition that tells them apart may be missing. Identical values can stand only once.

What was measured:
Type in all cases: cell-based
[1] = system: Kleb. pnemoniae; test: EDTA salt dilution test, MIC/MBC; settings: two entries, Exhibit A1
Method: (§1) Protocol one: Broth dilutions:
(§2) Inoculate a 25 ml nutrient broth (Oxoid No2) in a sterile universal container with one of the following organisms; Pseudomonas aeruginosa, Proteus Mirabilis, E. coli, Klebsiella pneumoniae, Staph aureus, Coagulase negative staphylococci, Enterococcus faecalis or MRSA.
(§3) Incubate the broth at 37° C. overnight.
(§4) To make these concentrations put the EDTA needed for 10 mLs in only 9 mLs of broth in sterile universal containers, as this will be diluted further when the organisms are added.
(§5) Dilute the overnight broth cultures to 10^7 organisms/mL using more sterile nutrient broth.
(§6) Add 1 mL of this diluent to each of the EDTA series broths. This gives a final concentration of 10^6 organism/mL in the EDTA broths.
(§7) Incubate for 18 hours at 37° C.
(§8) Next day visually read the MIC's by observing the turbidity of the broths.
(§9) Plate out 1 uL of each dilution onto fresh blood agar plate and spread using a sterile plastic spreader.
(§10) Incubate overnight at 37° C.
(§11) Next day read the MBC's by performing colony counts.

[2] = system: E. coli; test: EDTA salt dilution test, MIC/MBC; settings: three entries, Exhibit A1
Method: as §1, §2, §3, §4, §5, §6, §7, §8, §9, §10, §11

[3] = system: Pseudomonas aeruginosa; test: EDTA salt dilution test, MIC/MBC; settings: two entries
Method: as §1, §2, §3, §4, §5, §6, §7, §8, §9, §10, §11

[4] = system: MRSA; test: EDTA salt dilution test, MIC/MBC; settings: five entries, Exhibit A2
Method: as §1, §2, §3, §4, §5, §6, §7, §8, §9, §10, §11

[5] = system: VRE; test: EDTA salt dilution test, MIC/MBC; settings: two entries
Method: as §1, §2, §3, §4, §5, §6, §7, §8, §9, §10, §11

[6] = system: S. capitis; test: EDTA salt dilution test, MIC/MBC; settings: two entries
Method: as §1, §2, §3, §4, §5, §6, §7, §8, §9, §10, §11

[7] = system: Pseudomonas sp.; test: EDTA salt dilution test, MIC/MBC
Method: as §1, §2, §3, §4, §5, §6, §7, §8, §9, §10, §11

[8] = system: Proteus mirabilis; test: EDTA salt dilution test, MIC/MBC; settings: two entries
Method: as §1, §2, §3, §4, §5, §6, §7, §8, §9, §10, §11

[9] = system: S. lentus; test: EDTA salt dilution test, MIC/MBC
Method: as §1, §2, §3, §4, §5, §6, §7, §8, §9, §10, §11

[10] = system: S. simulans; test: EDTA salt dilution test, MIC/MBC
Method: as §1, §2, §3, §4, §5, §6, §7, §8, §9, §10, §11

[11] = system: S. epidermidis; test: EDTA salt dilution test, MIC/MBC; settings: two entries
Method: as §1, §2, §3, §4, §5, §6, §7, §8, §9, §10, §11

[12] = system: Ent. faecalis; test: EDTA salt dilution test, MIC/MBC
Method: as §1, §2, §3, §4, §5, §6, §7, §8, §9, §10, §11

[13] = system: S. aureus; test: EDTA salt dilution test, MIC/MBC; settings: five entries, Exhibit A2
Method: as §1, §2, §3, §4, §5, §6, §7, §8, §9, §10, §11

[14] = system: S. xylosus; test: EDTA salt dilution test, MIC/MBC
Method: as §1, §2, §3, §4, §5, §6, §7, §8, §9, §10, §11

[15] = system: variety of microbes; test: Efficacy of disinfectant salts of EDTA against a number of microbes; settings: general statement
Method: The Applicant has tested the efficacy of a number of disinfectant salts of EDTA against a number of microbes.
as §1, §2, §3
Next day make up a series of nutrient broths containing a dilution of the appropriate EDTA as in the following list; 0 mg/mL, 0.25 mg/mL, 0.5 mg/mL, 1.0 mg/mL, 1.5 mg/mL, 2.0 mg/mL, 4.0 mg/mL, 6.0 mg/mL, 8.0 mg/mL, 10 mg/mL, 15 mg/mL, 20 mg/mL, 25 mg/mL, 30 mg/ml, 40 mg/mL, 50 mg/mL, 60 mg/mL, 70 mg/mL, 80 mg/mL, 90 mg/mL, 100 mg/mL.
as §4, §5, §6, §7
Next day visually read the MIC's by observing the turbidity of the broths. […]
as §11

[16] = system: Coryneform strait/amy; test: EDTA salt dilution test, MIC/MBC
[17] = system: C. lucitaniae; test: EDTA agar dilution method, yeasts, MIC/MBC; settings: Exhibit C
From the text: (§12) Protocol 3: Agar dilutions.
Do this until all the media is used up.

[18] = system: C. parapsilosis; test: EDTA agar dilution method, yeasts, MIC/MBC; settings: Exhibit C
Method: (§13) The bactericidal effects were measured as the Minimum Bactericidal Concentration (MBC), while the inhibitory effects were measured as the Minimum Inhibitory Concentration (MIC). In each case, the concentration was measured as milligrams of the disinfectant salt per milliliter of water (mg/ml).
as §12
(§14) Prepare nutrient agar plates with increasing concentrations of EDTA, 0, 0.5, 1, 1.5, 2, 4, 6, 8, 10, 15, 20, 25, 30 mg/mL, using the following method. • Pour 300 mL distilled water into a sterile glass bottle. • Add the appropriate amount of EDTA. This is the concentration desired ×300, in grams. • Once the EDTA has fully dissolved, add 8.4 g of Nutrient agar powder (Oxoid). Mix thoroughly. • Do this for each concentration of EDTA required. […] Do this until all the media is used up. Label the plates with the concentration of EDTA they contain. • These plates can then be stored, until they are needed, in a 4° C. fridge. • Use an automatic plate inoculator to inoculate each plate with 21 organisms.

[19] = system: C. tropicalis; test: EDTA agar dilution method, yeasts, MIC/MBC; settings: Exhibit C
Method: as §13, §12, §14

[20] = system: C. guilliermondii; test: EDTA agar dilution method, yeasts, MIC/MBC; settings: Exhibit C
Method: as §13, §12, §14

[21] = system: C. albicans; test: EDTA agar dilution method, yeasts, MIC/MBC; settings: three entries, Exhibit C
Method: as §13, §12, §14

[22] = system: C. glabrata; test: EDTA agar dilution method, yeasts, MIC/MBC; settings: two entries, Exhibit C
Method: as §13, §12, §14

[23] = system: Proteus vulgaris; test: EDTA salt dilution test, MIC/MBC
[24] = system: Steno. maltophilia; test: EDTA salt dilution test, MIC/MBC
[25] = system: Kleb. ornitholytica; test: EDTA salt dilution test, MIC/MBC
[26] = system: Acinetobacter baumanii; test: EDTA salt dilution test, MIC/MBC; settings: two entries, Exhibit A2
[27] = system: Ent. cloacae; test: EDTA salt dilution test, MIC/MBC; settings: three entries, Exhibit A1
[28] = system: Ent. faeculm; test: EDTA salt dilution test, MIC/MBC
[29] = system: Kleb. oxytoca; test: EDTA salt dilution test, MIC/MBC
[30] = system: Cornyeform amycolatum; test: EDTA salt dilution test, MIC/MBC

## N.N.O=C(O)CN(CCN(CC(=O)O)CC(=O)O)CC(=O)O [Diammonium EDTA]
[1]
  MBC, minimum concentration required to kill an entire population: >10000 µg/mL
[2]
  MBC, minimum concentration required to kill an entire population: >10000 µg/mL
[3]; Exhibit A1
  MBC, minimum concentration required to kill an entire population: >10000 µg/mL
[3]; Exhibit A2
  MIC, minimum concentration required to inhibit growth: 1000 µg/mL
[4]
  MIC, minimum concentration required to inhibit growth: 1000 µg/mL
[5]; Exhibit A1
  MBC, minimum concentration required to kill an entire population: 15000 µg/mL and >15000 µg/mL
[5]; Exhibit A2
  MIC, minimum concentration required to inhibit growth: <500 µg/mL and 1000 µg/mL
[6]; Exhibit A1
  MBC, minimum concentration required to kill an entire population: 10000 µg/mL and 8000 µg/mL
[6]; Exhibit A2
  MIC, minimum concentration required to inhibit growth: <500 µg/mL
[7]; Exhibit A1
  MBC, minimum concentration required to kill an entire population: >10000 µg/mL
[7]; Exhibit A2
  MIC, minimum concentration required to inhibit growth: <500 µg/mL
[8]; Exhibit A1
  MBC, minimum concentration required to kill an entire population: >10000 µg/mL
[8]; Exhibit A2
  MIC, minimum concentration required to inhibit growth: <500 µg/mL
[9]; Exhibit A1
  MBC, minimum concentration required to kill an entire population: 10000 µg/mL
[9]; Exhibit A2
  MIC, minimum concentration required to inhibit growth: <500 µg/mL
[10]; Exhibit A1
  MBC, minimum concentration required to kill an entire population: 10000 µg/mL
[10]; Exhibit A2
  MIC, minimum concentration required to inhibit growth: <500 µg/mL
[11]; Exhibit A1
  MBC, minimum concentration required to kill an entire population: 4000 µg/mL and 8000 µg/mL
[11]; Exhibit A2
  MIC, minimum concentration required to inhibit growth: <500 µg/mL
[12]; Exhibit A1
  MBC, minimum concentration required to kill an entire population: 15000 µg/mL
[12]; Exhibit A2
  MIC, minimum concentration required to inhibit growth: 1000 µg/mL
[13]
  MIC, minimum concentration required to inhibit growth: 1000 µg/mL
[14]; Exhibit A1
  MBC, minimum concentration required to kill an entire population: 4000 µg/mL
[14]; Exhibit A2
  MIC, minimum concentration required to inhibit growth: <500 µg/mL
[15]
  anti-microbial (antifungal and antibacterial) properties compared with the disodium salt: superior to disodium EDTA
[16]; Exhibit A1
  MBC, minimum concentration required to kill an entire population: 1000 µg/mL
[16]; Exhibit A2
  MIC, minimum concentration required to inhibit growth: <500 µg/mL
[17]
  MIC's, Minimum Inhibitory Concentration: 500 µg/mL
[18]
  MIC's, Minimum Inhibitory Concentration: 500 µg/mL
[19]
  MIC's, Minimum Inhibitory Concentration: 1000 µg/mL
[20]
  MIC's, Minimum Inhibitory Concentration: 500 µg/mL
[21]
  MIC's, Minimum Inhibitory Concentration: 500 µg/mL
[22]
  MIC's, Minimum Inhibitory Concentration: 500 µg/mL
[23]; Exhibit A1
  MBC, minimum concentration required to kill an entire population: >10000 µg/mL
[23]; Exhibit A2
  MIC, minimum concentration required to inhibit growth: <500 µg/mL
[24]; Exhibit A1
  MBC, minimum concentration required to kill an entire population: >10000 µg/mL
[24]; Exhibit A2
  MIC, minimum concentration required to inhibit growth: 1000 µg/mL
[25]; Exhibit A1
  MBC, minimum concentration required to kill an entire population: >10000 µg/mL
[25]; Exhibit A2
  MIC, minimum concentration required to inhibit growth: 1000 µg/mL
[26]
  MIC, minimum concentration required to inhibit growth: <500 µg/mL
[27]
  MBC, minimum concentration required to kill an entire population: >10000 µg/mL
[28]; Ent. faecuim, Exhibit A2
  MIC, minimum concentration required to inhibit growth: <500 µg/mL
[28]; Ent. faeculm, Exhibit A1
  MBC, minimum concentration required to kill an entire population: 15000 µg/mL
[29]; Exhibit A1
  MBC, minimum concentration required to kill an entire population: >10000 µg/mL
[29]; Exhibit A2
  MIC, minimum concentration required to inhibit growth: 1000 µg/mL
[30]; Exhibit A1
  MBC, minimum concentration required to kill an entire population: 1000 µg/mL
[30]; Exhibit A2
  MIC, minimum concentration required to inhibit growth: <500 µg/mL
